The source made the active and inactive calls. The calls are words filed in the database; no cut-off is given here. Bounds are passed on as bounds.

15 compounds from ChEMBL document CHEMBL4680163, “Discovery of potent epidermal growth factor receptor (EGFR) degraders by proteolysis targeting chimera (PROTAC)” (Eur J Med Chem, 2020) can be followed below.

In experiment [1] the test system is A-431. In words: Antiproliferative activity against human A-431 cells harboring EGFR assessed as reduction in cell viability incubated for 72 hrs by MTT assay. In kind it is functional, cell-based. Particulars: A-431, 72 h.
For experiment [2], the system named is A549. In words: Antiproliferative activity against human A549 cells harboring EGFR assessed as reduction in cell viability incubated for 72 hrs by MTT assay. Particulars: A549, 72 h. In kind it is functional, cell-based.
For experiment [3], the system named is NCI-H1975. Put plainly: Antiproliferative activity against human NCI-H1975 cells harboring EGFR L858/T790M mutant assessed as reduction in cell viability incubated for 72 hrs by MTT assay. In kind it is functional, cell-based. Particulars: NCI-H1975, 72 h.
In experiment [4] the test system is HCC827. In words: Antiproliferative activity against human HCC827 cells harboring EGFRDel19 mutant assessed as reduction in cell viability incubated for 72 hrs by MTT assay. In kind it is functional, cell-based. Particulars: HCC827, 72 h. A general note: Tetrazolium assays rely on reduction of a dye to a coloured formazan, in cell work by metabolically active cells.

In experiment [5] the test system is HCC827. Put plainly: Induction of cell cycle arrest in human HCC827 cells assessed as accumulation in S phase at 1 uM incubated for 32 hrs by PI staining based flow cytometry analysis (reference value: 41.26 %). In kind it is functional. Background: A flow cytometer gives signals particle by particle.
Experiment [6] has as its system HCC827. Put plainly: Induction of apoptosis in human HCC827 cells assessed as late apoptotic cells at 0.1 uM incubated for 32 hrs by annexin V-FITC and PI staining based flow cytometry analysis (reference value: 14.23 %). In kind it is functional.
Experiment [7] has as its system HCC827. In words: Induction of apoptosis in human HCC827 cells assessed as necrotic cells at 1 uM incubated for 32 hrs by annexin V-FITC and PI staining based flow cytometry analysis (reference value: 7.12 %). In kind it is functional.
Experiment [8] relates to HCC827. In words: Induction of cell cycle arrest in human HCC827 cells assessed as accumulation in G1 phase at 1 uM incubated for 32 hrs by PI staining based flow cytometry analysis (reference value: 50.48 %). In kind it is functional.
Experiment [9] relates to HCC827. In words: Induction of cell cycle arrest in human HCC827 cells assessed as accumulation in G2 phase at 0.1 uM incubated for 32 hrs by PI staining based flow cytometry analysis (reference value: 8.25 %). In kind it is functional.
Experiment [10] has as its system HCC827. In words: Induction of apoptosis in human HCC827 cells assessed as viable cells at 1 uM incubated for 32 hrs by annexin V-FITC and PI staining based flow cytometry analysis (reference value: 72.15 %). In kind it is functional. Particulars: read-out: Activity.
Experiment [11] concerns HCC827. In words: Induction of apoptosis in human HCC827 cells assessed as necrotic cells at 0.1 uM incubated for 32 hrs by annexin V-FITC and PI staining based flow cytometry analysis (reference value: 6.68 %). In kind it is functional.
Experiment [12] deals with HCC827. In words: Induction of apoptosis in human HCC827 cells assessed as early apoptotic cells at 0.1 uM incubated for 32 hrs by annexin V-FITC and PI staining based flow cytometry analysis (reference value: 2.31 %). In kind it is functional.
For experiment [13], the system named is HCC827. In words: Induction of apoptosis in human HCC827 cells assessed as late apoptotic cells at 1 uM incubated for 32 hrs by annexin V-FITC and PI staining based flow cytometry analysis (reference value: 18.02%). In kind it is functional.
Experiment [14] relates to HCC827. In words: Induction of apoptosis in human HCC827 cells assessed as viable cells at 0.1 uM incubated for 32 hrs by annexin V-FITC and PI staining based flow cytometry analysis (reference value: 76.79 %). Particulars: read-out: Activity. In kind it is functional.
For experiment [15], the system named is HCC827. Put plainly: Induction of cell cycle arrest in human HCC827 cells assessed as accumulation in G2 phase at 1 uM incubated for 32 hrs by PI staining based flow cytometry analysis (reference value: 8.25 %). In kind it is functional.
Experiment [16] concerns HCC827. In words: Induction of apoptosis in human HCC827 cells assessed as early apoptotic cells at 1 uM incubated for 32 hrs by annexin V-FITC and PI staining based flow cytometry analysis (reference value: 2.72%). In kind it is functional.
For experiment [17], the system named is HCC827. Put plainly: Induction of cell cycle arrest in human HCC827 cells assessed as accumulation in G1 phase at 0.1 uM incubated for 32 hrs by PI staining based flow cytometry analysis (reference value: 50.48 %). In kind it is functional.
For experiment [18], the system named is HCC827. In words: Induction of cell cycle arrest in human HCC827 cells assessed as accumulation in S phase at 0.1 uM incubated for 32 hrs by PI staining based flow cytometry analysis (reference value: 41.26 %). In kind it is functional.
Experiment [19] addresses Epidermal growth factor receptor (Homo sapiens) (UniProt P00533). Put plainly: Inhibition of EGFR in human HCC827 cells assessed as reduction in EGFR phosphorylation incubated for 36 hrs by Western blot analysis. In kind it is cell-based. Particulars: dose 0.1-1 µM. In general terms: A western blot detects proteins with antibodies after separation by electrophoresis.

Chain of Epidermal growth factor receptor (Homo sapiens) (P00533 whole entry): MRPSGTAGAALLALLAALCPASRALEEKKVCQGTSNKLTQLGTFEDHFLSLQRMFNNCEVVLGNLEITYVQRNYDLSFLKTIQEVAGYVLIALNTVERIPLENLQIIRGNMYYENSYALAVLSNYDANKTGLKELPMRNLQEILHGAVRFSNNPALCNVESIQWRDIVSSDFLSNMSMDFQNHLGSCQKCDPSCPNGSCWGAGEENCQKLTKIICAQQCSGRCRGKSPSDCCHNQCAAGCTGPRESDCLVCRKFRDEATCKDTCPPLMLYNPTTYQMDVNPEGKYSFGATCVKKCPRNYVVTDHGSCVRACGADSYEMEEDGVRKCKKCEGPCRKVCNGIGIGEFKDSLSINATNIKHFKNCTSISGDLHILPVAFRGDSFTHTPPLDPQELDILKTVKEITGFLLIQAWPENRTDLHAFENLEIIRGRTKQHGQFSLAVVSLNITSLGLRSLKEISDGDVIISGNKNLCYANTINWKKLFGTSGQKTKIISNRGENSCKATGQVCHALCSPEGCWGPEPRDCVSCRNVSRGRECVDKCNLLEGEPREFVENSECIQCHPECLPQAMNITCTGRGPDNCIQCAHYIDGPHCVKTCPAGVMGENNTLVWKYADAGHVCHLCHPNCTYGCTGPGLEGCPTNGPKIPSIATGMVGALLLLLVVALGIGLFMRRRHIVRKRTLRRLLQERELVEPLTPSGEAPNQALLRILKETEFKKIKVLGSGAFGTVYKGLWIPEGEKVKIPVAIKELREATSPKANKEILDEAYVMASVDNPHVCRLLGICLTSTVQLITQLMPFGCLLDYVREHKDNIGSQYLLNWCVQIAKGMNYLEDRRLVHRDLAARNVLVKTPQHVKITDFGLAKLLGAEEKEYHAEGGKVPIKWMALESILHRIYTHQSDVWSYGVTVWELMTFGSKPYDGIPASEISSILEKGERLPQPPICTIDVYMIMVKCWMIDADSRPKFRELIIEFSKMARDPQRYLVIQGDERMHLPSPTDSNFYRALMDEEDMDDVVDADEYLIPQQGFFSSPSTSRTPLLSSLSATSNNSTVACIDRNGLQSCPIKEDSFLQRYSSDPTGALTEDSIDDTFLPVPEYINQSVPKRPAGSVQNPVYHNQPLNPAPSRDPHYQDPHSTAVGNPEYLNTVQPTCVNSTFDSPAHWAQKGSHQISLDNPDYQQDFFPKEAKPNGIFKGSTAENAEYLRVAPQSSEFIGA

A word on the IC50: it is the concentration at which inhibition is half-maximal. With `Cc1ncsc1-c1ccc(CNC(=O)[C@@H]2C[C@@H](O)CN2C(=O)[C@@H](NCCOCCOCCn2cc(CN3CCN(c4ccc(Nc5cc6c(N7CCC(CO)CC7)nc(Nc7ccc(F)cc7)nc6cn5)nc4)CC3)nn2)C(C)(C)C)cc1`, the IC50 in experiment [1] is above 10000 nM; in experiment [2], above 10000 nM; in experiment [3], above 10000 nM; in experiment [4], 1760 nM.
For `O=C(CN1CCN(c2ccc(Nc3cc4c(N5CCC(CO)CC5)nc(Nc5ccc(F)cc5)nc4cn3)nc2)CC1)NCCC(=O)Nc1cccc2c1CN(C1CCC(=O)NC1=O)C2=O` (configuration not stated), in experiment [4], the IC50 is 2760 nM.
On to `C=CC(=O)Nc1cc(Nc2nccc(-c3cn(C)c4ccccc34)n2)c(OC)cc1N(C)CCN(C)C` [OSIMERTINIB], for which the IC50 in experiment [1] was […]; in [2], 900 nM; in experiment [3], […]; in experiment [4], 36 nM. Further, the Activity in experiment [5] is reported as 10.16%; in experiment [6] it was 55.86%; in [7] it was 10.32%; in experiment [8] it was 80.12%; in [9] it was 8.26%; in [11], 15.24%. In addition, the Activity worked out at 5.07% in [12]; 59.59% in experiment [13]; 9.71% in [15]; 6.11% in [16]; 82.45% in experiment [17]; 9.29% in experiment [18]. Moreover, in experiment [10], the viability at 1 µM is 24%. In addition, the viability at 0.1 µM in experiment [14] was 23.8%.
`O=C1CCC(N2Cc3c(NC(=O)CCCCCCN4CCN(c5ccc(Nc6cc7c(N8CCC(CO)CC8)nc(Nc8ccc(F)cc8)nc7cn6)nc5)CC4)cccc3C2=O)C(=O)N1` (configuration not stated): in [4], the IC50 amounted to 1210 nM.
As for `O=C1CCC(N2Cc3c(NC(=O)CCCCN4CCN(c5ccc(Nc6cc7c(N8CCC(CO)CC8)nc(Nc8ccc(F)cc8)nc7cn6)nc5)CC4)cccc3C2=O)C(=O)N1` (configuration not stated), the IC50 in experiment [4] was above 10000 nM.
On to `O=C1CCC(N2Cc3c(NC(=O)CCCCCCCn4cc(CN5CCN(c6ccc(Nc7cc8c(N9CCC(CO)CC9)nc(Nc9ccc(F)cc9)nc8cn7)nc6)CC5)nn4)cccc3C2=O)C(=O)N1` (configuration not stated), for which the IC50 in experiment [1] was above 10000 nM; in experiment [3] it was above 10000 nM; in experiment [4] it was 7910 nM.
`Cc1ncsc1-c1ccc(CNC(=O)[C@@H]2C[C@@H](O)CN2C(=O)[C@@H](NC(=O)CCCCN2CCN(c3ccc(Nc4cc5c(N6CCC(CO)CC6)nc(Nc6ccc(F)cc6)nc5cn4)nc3)CC2)C(C)(C)C)cc1`: the IC50 in [4] is 1490 nM.
As to `Nc1cccc2c1CN(C1CCC(=O)NC1=O)C2=O` (configuration not stated) [LENALIDOMIDE], in experiment [4], the IC50 is above 10000 nM.
Regarding `Cc1ncsc1-c1ccc(CNC(=O)[C@@H]2C[C@@H](O)CN2C(=O)[C@@H](N)C(C)(C)C)cc1`, in experiment [4], the IC50 is above 10000 nM.
On to `CN(C)C1CCN(c2ccc(Nc3cc4c(N5CCC(CO)CC5)nc(Nc5ccc(F)cc5)nc4cn3)nc2)CC1`, for which the Activity is 13.43% in [5]; 43.7% in experiment [6]; 16.48% in experiment [7]; 78.98% in experiment [8]; 7.72% in experiment [9]; 8.35% in experiment [11]. Moreover, the Activity is listed as 8.5% in [12]; 53.88% in experiment [13]; 7.56% in experiment [15]; 4.79% in experiment [16]; 78.84% in experiment [17]; 13.43% in experiment [18]. The inhibition result in experiment [19] was “Active”. Also, in experiment [10], the viability at 1 µM was determined as 24.9%. Moreover, the viability at 0.1 µM in experiment [14] is 39.5%.
In the case of `CN(C)C1CCN(c2ccc(Nc3cc4c(N5CCN(CCCCCCCC(=O)Nc6cccc7c6CN(C6CCC(=O)NC6=O)C7=O)CC5)nc(Nc5ccc(F)cc5)nc4cn3)nc2)CC1` (configuration not stated), in experiment [4], the IC50 amounted to 1450 nM.
On to `O=C1CCC(N2Cc3c(NC(=O)CCCCCN4CCN(c5ccc(Nc6cc7c(N8CCC(CO)CC8)nc(Nc8ccc(F)cc8)nc7cn6)nc5)CC4)cccc3C2=O)C(=O)N1` (configuration not stated), for which the IC50 in experiment [4] is above 10000 nM.
For `Cc1ncsc1-c1ccc(CNC(=O)[C@@H]2C[C@@H](O)CN2C(=O)[C@@H](NCCOCCOCCOCCN2CCN(c3ccc(Nc4cc5c(N6CCC(CO)CC6)nc(Nc6ccc(F)cc6)nc5cn4)nc3)CC2)C(C)(C)C)cc1`, the IC50 in experiment [1] worked out at 2320 nM; in experiment [2] it was 6390 nM; in experiment [3], 2640 nM; in experiment [4], 710 nM.
As for `CN(C)C1CCN(c2ccc(Nc3cc4c(N5CCN(CC(=O)NCCC(=O)Nc6cccc7c6CN(C6CCC(=O)NC6=O)C7=O)CC5)nc(Nc5ccc(F)cc5)nc4cn3)nc2)CC1` (configuration not stated), the IC50 in [1] is above 10000 nM; in [4], 4630 nM.
As to `Cc1ncsc1-c1ccc(CNC(=O)[C@@H]2C[C@@H](O)CN2C(=O)[C@@H](NCCOCCOCCN2CCN(c3ccc(Nc4cc5c(N6CCC(CO)CC6)nc(Nc6ccc(F)cc6)nc5cn4)nc3)CC2)C(C)(C)C)cc1`, the IC50 in [1] turned out to be 2460 nM; in experiment [3], 2970 nM; in [4], 340 nM.
